Reference: patent publication US20240025862A1, “SUBSTITUTED N-PHENYLURACILS AND SALTS THEREOF, AND USE THEREOF AS HERBICIDAL ACTIVE SUBSTANCES” (Bayer Aktiengesellschaft, priority 2020, published 2024)

Assays:
Format in all cases: in vivo
[1] = test system: Oryza sativa (ORYSA); assay: Post-emergence crop plant compatibility, greenhouse pot test (also comparative test C); conditions: for Post-emergence action against ORYSA (crop plant compatibility): vs untreated controls; for Post-emergence action against ORYSA in %: 20 g/ha, crop plant compatibility
Summary of the method: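 Visual damage versus untreated plants (0% = like control, 100% = plants died) was scored about 3 weeks after a post-emergence spray in greenhouse pots. Treatment: one-leaf stage, WP or EC in water at 600 l/ha with 0.5% additive; a/b/c mark different dosages on the same crop.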

[2] = test system: Brassica napus (BRSNW); assay: Post-emergence crop plant compatibility, greenhouse pot test; conditions: for Post-emergence action against BRSNW (crop plant compatibility): vs untreated controls
Summary of the method: (§1)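 Compatibility was scored as visual % effect against untreated controls about 3 weeks after spraying green plant parts at the one-leaf stage. Formulations (WP/EC) were applied in aqueous form with 0.5% additive, 600 l/ha, to greenhouse-grown pot plants.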

[3] = test system: Glycine max (GLXMA); assay: as above
Summary of the method: as §1

[4] = test system: Zea mays (ZEAMX); assay: as above; conditions: 1.25 g/ha, vs untreated controls
Summary of the method: as §1

[5] = test system: Viola tricolor (VIOTR); assay: Post-emergence herbicidal action, greenhouse pot test
Summary of the method: (§2)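 Activity was scored by eye about 3 weeks after treatment against untreated plants, where 100% means dead plants and 0% means no difference. Plants at the one-leaf stage received a foliar spray of WP or EC formulations in water plus 0.5% additive (600 l/ha, up to 20 g/ha). Plants were grown in sandy loam pots in a greenhouse for 2–3 weeks before spraying.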

[6] = test system: Pharbitis purpurea (PHBPU); assay: as above
Summary of the method: as §2

[7] = test system: Abutilon theophrasti (ABUTH); assay: as above; conditions: rated visually after about 3 weeks vs untreated controls, 100% = plants have died
Summary of the method: as §2

[8] = test system: Stellaria media (STEME); assay: as above
Summary of the method: as §2

[9] = test system: Polygonum convolvulus (POLCO); assay: as above
Summary of the method: as §2

[10] = test system: Veronica persica (VERPE); assay: as above
Summary of the method: as §2

[11] = test system: Amaranthus retroflexus (AMARE); assay: as above; conditions: rated visually after about 3 weeks vs untreated controls, 100% = plants have died
Summary of the method: as §2

[12] = test system: Alopecurus myosuroides (ALOMY); assay: Post-emergence herbicidal action, greenhouse pot test (also comparative test C); conditions: rated visually after about 3 weeks vs untreated controls, 100% = plants have died
Summary of the method: (§3)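 Greenhouse pot plants in sandy loam were sprayed post-emergence at the one-leaf stage (2–3 weeks after sowing) with WP or EC formulations plus 0.5% additive at 600 l/ha water. Activity was rated visually after about 3 weeks versus untreated controls (100% = dead, 0% = like control); rates were 20 g/ha or less, and 5 g/ha or less in the comparative test.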

[13] = test system: Matricaria inodora (MATIN); assay: as above
Summary of the method: as §3

[14] = test system: Setaria viridis (SETVI); assay: as above
Summary of the method: as §3

[15] = test system: Avena fatua (AVEFA); assay: Post-emergence herbicidal action, greenhouse pot test; conditions: rated visually after about 3 weeks vs untreated controls, 100% = plants have died
Summary of the method: as §2

[16] = test system: Lolium rigidum (LOLRI); assay: as above; conditions: Lolium rigidum, 504 h, dosage 20 g/ha, read-out: Post-emergence action against LOLRI in %
Summary of the method: as §2

[17] = test system: Echinochloa crus-galli (ECHCG); assay: Post-emergence herbicidal action, greenhouse pot test (also comparative test C)
Summary of the method: as §3

[18] = test system: Triticum aestivum (TRZAS); assay: Post-emergence crop plant compatibility, greenhouse pot test; conditions: vs untreated controls
Summary of the method: as §1

## CC(Oc1ccccc1Sc1cc(-n2c(=O)cc(C(F)(F)F)n(C)c2=O)c(F)cc1Cl)C(=O)OCCO (racemic) [I.2-58]
[1]; 1.25 g/ha
  Post-emergence action against ORYSA (crop plant compatibility): 10%
[1]; 5 g/ha
  Post-emergence action against ORYSA (crop plant compatibility): 10%
[1]
  Post-emergence action against ORYSA in %: 20%
[2]; 1.25 g/ha
  Post-emergence action against BRSNW (crop plant compatibility): 20%
[3]; 1.25 g/ha
  Post-emergence action against GLXMA in %: 10%
[3]; 5 g/ha
  Post-emergence action against GLXMA in %: 10%
[4]
  Post-emergence action against ZEAMX (crop plant compatibility): 10%
[5]; 1.25 g/ha
  Post-emergence action against VIOTR: 100%
[5]; 5 g/ha
  Post-emergence action against VIOTR: 100%
[5]; 20 g/ha
  Post-emergence action against VIOTR: 100%
[6]; dosage 5 g/ha
  Post-emergence action against PHBPU in %: 80%
[6]; dosage 20 g/ha
  Post-emergence action against PHBPU in %: 100%
[7]
  Post-emergence action at 1.25 g/ha against ABUTH in %: 100%
[7]; 5 g/ha
  Post-emergence action at 5 g/ha against ABUTH in %: 100%
[7]; 20 g/ha
  Post-emergence action at 20 g/ha against ABUTH in %: 100%
[8]; 5 g/ha
  Post-emergence action against STEME: 100%
[8]; 20 g/ha
  Post-emergence action against STEME: 100%
[9]; dosage 1.25 g/ha
  Post-emergence action against POLCO in %: 100%
[9]; dosage 5 g/ha
  Post-emergence action against POLCO in %: 100%
[9]; dosage 20 g/ha
  Post-emergence action against POLCO in %: 100%
[10]; 5 g/ha
  Post-emergence action against VERPE: 80%
[10]; 20 g/ha
  Post-emergence action against VERPE: 100%
[11]
  Post-emergence action at 1.25 g/ha against AMARE in %: 90%
[11]; 5 g/ha
  Post-emergence action at 5 g/ha against AMARE in %: 100%
[11]; 20 g/ha
  Post-emergence action at 20 g/ha against AMARE in %: 100%
[12]; 20 g/ha
  Post-emergence action at 20 g/ha against ALOMY in %: 80%
[13]; dosage 5 g/ha
  Post-emergence action against MATIN in %: 80%
[13]; dosage 20 g/ha
  Post-emergence action against MATIN in %: 90%
[14]; 20 g/ha
  Post-emergence action against SETVI: 100%
[14]; dosage 1.25 g/ha
  Post-emergence action against SETVI in %: 100%
[14]; dosage 5 g/ha
  Post-emergence action against SETVI in %: 100%

## Cn1c(C(F)(F)F)cc(=O)n(-c2cc(Oc3ccccc3OCC(=O)OCC#N)c(Cl)cc2F)c1=O [I.7-176, Cyanomethyl (2-{2-chloro-4-fluoro-5-[3-methyl-2,6-dioxo-4-(trifluoromethyl)-3,6-dihydropyrimidin-1(2H)-yl]phenoxy}phenoxy)acetate]
[2]; 5 g/ha, crop plant compatibility, observed effects on crop plant in comparison to untreated controls
  Post-emergence action at 5 g/ha against BRSNW in %: 20%
[2]; 20 g/ha
  Post-emergence action against BRSNW (crop plant compatibility): 20%
[5]; Viola tricolor, 504 h, 5 g/ha, read-out: Post-emergence action against VIOTR
  pest or weed control at 5 g/ha: 100%
[5]; Viola tricolor, 504 h, 20 g/ha, read-out: Post-emergence action against VIOTR
  pest or weed control at 20 g/ha: 100%
[6]; Ipomoea purpurea, 504 h, dosage 5 g/ha, read-out: Post-emergence action against PHBPU in %
  pest or weed control at 5 g/ha: 100%
[6]; Ipomoea purpurea, 504 h, dosage 20 g/ha, read-out: Post-emergence action against PHBPU in %
  pest or weed control at 20 g/ha: 100%
[7]; Abutilon theophrasti, 504 h, 5 g/ha, read-out: Post-emergence action at 5 g/ha against ABUTH in %
  pest or weed control at 5 g/ha: 100%
[7]; Abutilon theophrasti, 504 h, 20 g/ha, read-out: Post-emergence action at 20 g/ha against ABUTH in %
  pest or weed control at 20 g/ha: 100%
[15]; 5 g/ha
  Post-emergence action at 5 g/ha against AVEFA in %: 80%
[15]; Avena fatua, 504 h, 20 g/ha, read-out: Post-emergence action at 20 g/ha against AVEFA in %
  pest or weed control at 20 g/ha: 100%
[16]
  pest or weed control at 20 g/ha: 80%
[9]; Fallopia convolvulus, 504 h, dosage 5 g/ha, read-out: Post-emergence action against POLCO in %
  pest or weed control at 5 g/ha: 100%
[9]; Fallopia convolvulus, 504 h, dosage 20 g/ha, read-out: Post-emergence action against POLCO in %
  pest or weed control at 20 g/ha: 100%
[10]; Veronica persica, 504 h, 5 g/ha, read-out: Post-emergence action against VERPE
  pest or weed control at 5 g/ha: 100%
[10]; Veronica persica, 504 h, 20 g/ha, read-out: Post-emergence action against VERPE
  pest or weed control at 20 g/ha: 100%
[11]; Amaranthus retroflexus, 504 h, 5 g/ha, read-out: Post-emergence action at 5 g/ha against AMARE in %
  pest or weed control at 5 g/ha: 100%
[11]; Amaranthus retroflexus, 504 h, 20 g/ha, read-out: Post-emergence action at 20 g/ha against AMARE in %
  pest or weed control at 20 g/ha: 100%
[12]; Alopecurus myosuroides, 504 h, 5 g/ha, read-out: Post-emergence action at 5 g/ha against ALOMY in %
  pest or weed control at 5 g/ha: 100%
[12]; Alopecurus myosuroides, 504 h, 20 g/ha, read-out: Post-emergence action at 20 g/ha against ALOMY in %
  pest or weed control at 20 g/ha: 100%
[13]; Tripleurospermum inodorum, 504 h, dosage 5 g/ha, read-out: Post-emergence action against MATIN in %
  pest or weed control at 5 g/ha: 90%
[13]; Tripleurospermum inodorum, 504 h, dosage 20 g/ha, read-out: Post-emergence action against MATIN in %
  pest or weed control at 20 g/ha: 100%
[17]; Echinochloa crus-galli, 504 h, dosage 5 g/ha, read-out: Post-emergence action against ECHCG in %
  pest or weed control at 5 g/ha: 100%
[17]; Echinochloa crus-galli, 504 h, dosage 20 g/ha, read-out: Post-emergence action against ECHCG in %
  pest or weed control at 20 g/ha: 100%
[14]; Setaria viridis, 504 h, 20 g/ha, read-out: Post-emergence action against SETVI
  pest or weed control at 20 g/ha: 100%
[14]; Setaria viridis, 504 h, dosage 5 g/ha, read-out: Post-emergence action against SETVI in %
  pest or weed control at 5 g/ha: 100%

## CCOCCOC(=O)C(C)Oc1ccccc1Sc1cc(-n2c(=O)cc(C(F)(F)F)n(C)c2=O)c(F)cc1Cl (racemic) [I.2-2]
[1]; 1.25 g/ha
  Post-emergence action against ORYSA (crop plant compatibility): 10%
[1]; 5 g/ha
  Post-emergence action against ORYSA (crop plant compatibility): 10%
[1]
  Post-emergence action against ORYSA in %: 20%
[2]; 1.25 g/ha
  Post-emergence action against BRSNW (crop plant compatibility): 10%
[3]; 1.25 g/ha
  Post-emergence action against GLXMA in %: 0%
[3]; 5 g/ha
  Post-emergence action against GLXMA in %: 0%
[3]; 20 g/ha
  Post-emergence action against GLXMA in %: 10%
[18]; 1.25 g/ha
  Post-emergence action against TRZAS (crop plant compatibility): 20%
[18]; 5 g/ha
  Post-emergence action against TRZAS (crop plant compatibility): 20%
[5]; 1.25 g/ha
  Post-emergence action against VIOTR: 100%
[5]; 5 g/ha
  Post-emergence action against VIOTR: 100%
[5]; 20 g/ha
  Post-emergence action against VIOTR: 100%
[6]; dosage 1.25 g/ha
  Post-emergence action against PHBPU in %: 100%
[6]; dosage 5 g/ha
  Post-emergence action against PHBPU in %: 100%
[6]; dosage 20 g/ha
  Post-emergence action against PHBPU in %: 100%
[7]
  Post-emergence action at 1.25 g/ha against ABUTH in %: 80%
[7]; 5 g/ha
  Post-emergence action at 5 g/ha against ABUTH in %: 100%
[7]; 20 g/ha
  Post-emergence action at 20 g/ha against ABUTH in %: 100%
[8]; 5 g/ha
  Post-emergence action against STEME: 100%
[8]; 20 g/ha
  Post-emergence action against STEME: 100%
[9]; dosage 5 g/ha
  Post-emergence action against POLCO in %: 100%
[9]; dosage 20 g/ha
  Post-emergence action against POLCO in %: 100%
[10]; 1.25 g/ha
  Post-emergence action against VERPE: 100%
[10]; 5 g/ha
  Post-emergence action against VERPE: 100%
[10]; 20 g/ha
  Post-emergence action against VERPE: 100%
[11]
  Post-emergence action at 1.25 g/ha against AMARE in %: 100%
[11]; 5 g/ha
  Post-emergence action at 5 g/ha against AMARE in %: 100%
[11]; 20 g/ha
  Post-emergence action at 20 g/ha against AMARE in %: 100%
[12]; 20 g/ha
  Post-emergence action at 20 g/ha against ALOMY in %: 80%
[13]; dosage 5 g/ha
  Post-emergence action against MATIN in %: 80%
[13]; dosage 20 g/ha
  Post-emergence action against MATIN in %: 100%
[17]; dosage 20 g/ha
  Post-emergence action against ECHCG in %: 90%
[14]; 20 g/ha
  Post-emergence action against SETVI: 100%
[14]; dosage 1.25 g/ha
  Post-emergence action against SETVI in %: 100%
[14]; dosage 5 g/ha
  Post-emergence action against SETVI in %: 100%
